Legend:
Type in all cases: in vivo
[1] = test system: galium (catchweed bedstraw, Galium aparine); assay: Test A postemergence, galium; conditions: Postemergence; for Galium plant response rating: 500 g ai/ha, visual injury vs untreated controls after approx. 10 days
Procedure, shortened: (§1)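 Preemergence: pigweed seeds in loam soil–sand blend received a directed soil spray of test chemicals in a non-phytotoxic solvent with surfactant. Postemergence: barnyardgrass, wheat and galium in pots of the same soil, 2 to 10 cm tall at one- to two-leaf stage, sprayed with the same formulation.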

[2] = test system: Ryegrass, Italian (Italian ryegrass, Lolium multiflorum); assay: Test A preemergence, Ryegrass, Italian; conditions: Preemergence; for Plant response rating, Ryegrass, Italian: 0 to 100 scale (0 no effect, 100 complete control); for Ryegrass, Italian plant response rating: visual injury on 0 to 100 scale (0 no effect, 100 complete control), approximately 10 days
Procedure, shortened: (§2)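 Pots: loam soil/sand blend. Pre: directed soil spray at planting. Post: plants 2–10 cm, 1–2 leaf stage. Formulation: non-phytotoxic solvent + surfactant.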

[3] = test system: blackgrass (Alopecurus myosuroides); assay: Test A postemergence, blackgrass; conditions: Postemergence, 0 to 100 scale (0 no effect, 100 complete control); for Blackgrass plant response rating: 500 g ai/ha, visual injury vs untreated controls after approx. 10 days
Procedure, shortened: as §2

[4] = test system: ragweed (common ragweed, Ambrosia artemisiifolia); assay: Test A preemergence, ragweed; conditions: Preemergence; for Plant response rating, Ragweed: 0 to 100 scale (0 no effect, 100 complete control); for Ragweed plant response rating: visual injury on 0 to 100 scale (0 no effect, 100 complete control), approximately 10 days
Procedure, shortened: as §2

[5] = test system: pigweed (Amaranthus retroflexus); assay: Test A preemergence, pigweed; conditions: for Plant response rating, Pigweed: 0 to 100 scale (0 no effect, 100 complete control); for Pigweed plant response rating: visual injury on 0 to 100 scale (0 no effect, 100 complete control), approximately 10 days
Procedure, shortened: as §1

[6] = test system: kochia (Bassia scoparia); assay: Test A preemergence, kochia; conditions: Preemergence; for Plant response rating, Kochia: 0 to 100 scale (0 no effect, 100 complete control); for Kochia plant response rating: visual injury on 0 to 100 scale (0 no effect, 100 complete control), approximately 10 days
Procedure, shortened: as §2

[7] = test system: corn (Zea mays); assay: Test A postemergence, corn; conditions: Postemergence; for Corn plant response rating: 500 g ai/ha, visual injury vs untreated controls after approx. 10 days
Procedure, shortened: as §2

[8] = test system: barnyardgrass (Echinochloa crus-galli); assay: Test A preemergence, barnyardgrass; conditions: Preemergence; for Plant response rating, Barnyardgrass: 0 to 100 scale (0 no effect, 100 complete control); for Barnyardgrass plant response rating: visual injury on 0 to 100 scale (0 no effect, 100 complete control), approximately 10 days
Procedure, shortened: as §2

[9] = test system: pigweed (Amaranthus retroflexus); assay: Test A postemergence, pigweed; conditions: Postemergence; for Pigweed plant response rating: 500 g ai/ha, visual injury vs untreated controls after approx. 10 days
Procedure, shortened: as §2

[10] = test system: barnyardgrass (Echinochloa crus-galli); assay: Test A postemergence, barnyardgrass; conditions: Postemergence, 0 to 100 scale (0 no effect, 100 complete control); for Barnyardgrass plant response rating: 500 g ai/ha, visual injury vs untreated controls after approx. 10 days
Procedure, shortened: as §1

[11] = test system: wheat (Triticum aestivum); assay: Test A postemergence, wheat; conditions: Postemergence; for Wheat plant response rating: 500 g ai/ha, visual injury vs untreated controls after approx. 10 days
Procedure, shortened: as §1

[12] = test system: ragweed (common ragweed, Ambrosia artemisiifolia); assay: Test A postemergence, ragweed; conditions: Postemergence; for Ragweed plant response rating: 500 g ai/ha, visual injury vs untreated controls after approx. 10 days
Procedure, shortened: as §2

[13] = test system: Foxtail, Giant (giant foxtail, Setaria faberi); assay: Test A preemergence, Foxtail, Giant; conditions: Preemergence; for Plant response rating, Foxtail, Giant: 0 to 100 scale (0 no effect, 100 complete control); for Foxtail, Giant plant response rating: visual injury on 0 to 100 scale (0 no effect, 100 complete control), approximately 10 days
Procedure, shortened: as §2

[14] = test system: Ryegrass, Italian (Italian ryegrass, Lolium multiflorum); assay: Test A postemergence, Ryegrass, Italian; conditions: Postemergence; for Ryegrass, Italian plant response rating: 500 g ai/ha, visual injury vs untreated controls after approx. 10 days
Procedure, shortened: as §2

[15] = test system: kochia (Bassia scoparia); assay: Test A postemergence, kochia; conditions: Postemergence; for Kochia plant response rating: 500 g ai/ha, visual injury vs untreated controls after approx. 10 days
Procedure, shortened: as §2

[16] = test system: Foxtail, Giant (giant foxtail, Setaria faberi); assay: Test A postemergence, Foxtail, Giant; conditions: Postemergence; for Foxtail, Giant plant response rating: 500 g ai/ha, visual injury vs untreated controls after approx. 10 days
Procedure, shortened: as §2

[17] = 125 g ai/ha, 0 to 100 scale (0 no effect, 100 complete control)
[18] = 0 to 100 scale (0 no effect, 100 complete control)
[19] = 125 g ai/ha, visual injury, approx. 10 days
[20] = 31 g ai/ha, visual injury on 0 to 100 scale (0 no effect, 100 complete control), approx. 10 days
[21] = 125 g ai/ha, visual injury approx. 10 days, 0 to 100 scale (0 no effect, 100 complete control)
[22] = 31 g ai/ha, visual injury, approx. 10 days
[23] = 125 g ai/ha, visual injury approx. 10 days

SMILES: Cc1cc(C)c(C2=NOC(C)(C)C2)cc1NS(=O)(=O)C(F)(F)F [Compound 206]
- Plant response rating, Galium [1, 17]: 70
- Galium plant response rating [1, 18]: 80
- Plant response rating, Ryegrass, Italian [2, 19]: 80
- Plant response rating, Ryegrass, Italian ([2]; 500 g ai/ha): 90
- Plant response rating, Blackgrass ([3]; 125 g ai/ha): 50
- Blackgrass plant response rating [3]: 50
- Plant response rating, Ragweed [4, 19]: 40
- Plant response rating, Ragweed ([4]; 500 g ai/ha): 80
- Plant response rating, Pigweed [5, 19]: 90
- Plant response rating, Pigweed ([5]; 500 g ai/ha): 100
- Plant response rating, Kochia [6, 19]: 80
- Plant response rating, Kochia ([6]; 500 g ai/ha): 90
- Plant response rating, Corn [7, 17]: 0
- Corn plant response rating [7, 18]: 70
- Plant response rating, Barnyardgrass [8, 19]: 90
- Plant response rating, Barnyardgrass ([8]; 500 g ai/ha): 90
- Plant response rating, Pigweed [9, 17]: 60
- Pigweed plant response rating [9, 18]: 70
- Plant response rating, Barnyardgrass ([10]; 125 g ai/ha): 60
- Barnyardgrass plant response rating [10]: 80
- Plant response rating, Wheat [11, 17]: 60
- Wheat plant response rating [11, 18]: 80
- Plant response rating, Ragweed [12, 17]: 60
- Ragweed plant response rating [12, 18]: 90
- Plant response rating, Foxtail, Giant [13, 19]: 80
- Plant response rating, Foxtail, Giant ([13]; 500 g ai/ha): 90
- Plant response rating, Ryegrass, Italian [14, 17]: 50
- Ryegrass, Italian plant response rating [14, 18]: 90
- Plant response rating, Kochia [15, 17]: 20
- Kochia plant response rating [15, 18]: 70
- Plant response rating, Foxtail, Giant [16, 17]: 50
- Foxtail, Giant plant response rating [16, 18]: 60

SMILES: COC1CCCN(C(=O)c2cc(NS(=O)(=O)C(F)(F)F)c(C)cc2C)CC1 (stereo not drawn) [Compound 137]
- Plant response rating, Galium [1, 20]: 30
- Plant response rating, Galium [1, 21]: 80
- Plant response rating, Ryegrass, Italian [2, 22]: 60
- Ryegrass, Italian plant response rating ([2]; 125 g ai/ha): 100
- Plant response rating, Blackgrass ([3]; 31 g ai/ha): 0
- Plant response rating, Blackgrass [3, 23]: 0
- Plant response rating, Ragweed [4, 22]: 20
- Ragweed plant response rating ([4]; 125 g ai/ha): 60
- Plant response rating, Pigweed [5, 22]: 80
- Pigweed plant response rating ([5]; 125 g ai/ha): 100
- Plant response rating, Kochia [6, 22]: 30
- Kochia plant response rating ([6]; 125 g ai/ha): 30
- Plant response rating, Corn [7, 20]: 30
- Plant response rating, Corn [7, 21]: 30
- Plant response rating, Barnyardgrass [8, 22]: 20
- Barnyardgrass plant response rating ([8]; 125 g ai/ha): 100
- Plant response rating, Pigweed [9, 20]: 50
- Plant response rating, Pigweed [9, 17]: 30
- Plant response rating, Barnyardgrass ([10]; 31 g ai/ha): 10
- Plant response rating, Barnyardgrass [10, 23]: 30
- Plant response rating, Wheat [11, 20]: 0
- Plant response rating, Wheat [11, 17]: 0
- Plant response rating, Ragweed [12, 20]: 0
- Plant response rating, Ragweed [12, 17]: 10
- Plant response rating, Foxtail, Giant [13, 22]: 50
- Foxtail, Giant plant response rating ([13]; 125 g ai/ha): 100
- Plant response rating, Ryegrass, Italian [14, 20]: 0
- Plant response rating, Ryegrass, Italian [14, 17]: 0
- Plant response rating, Kochia [15, 20]: 0
- Plant response rating, Kochia [15, 21]: 20
- Plant response rating, Foxtail, Giant [16, 20]: 0
- Plant response rating, Foxtail, Giant [16, 21]: 0

SMILES: Cc1cc(C)c(C2=NOC3(CCOCC3)C2)cc1NS(=O)(=O)C(F)(F)F [Compound 177]
- Plant response rating, Galium [1, 17]: 90
- Galium plant response rating [1, 18]: 90
- Ryegrass, Italian plant response rating ([2]; 125 g ai/ha): 100
- Plant response rating, Ryegrass, Italian ([2]; 500 g ai/ha): 100
- Plant response rating, Blackgrass ([3]; 125 g ai/ha): 0
- Blackgrass plant response rating [3]: 30
- Ragweed plant response rating ([4]; 125 g ai/ha): 70
- Plant response rating, Ragweed ([4]; 500 g ai/ha): 90
- Pigweed plant response rating ([5]; 125 g ai/ha): 80
- Plant response rating, Pigweed ([5]; 500 g ai/ha): 100
- Kochia plant response rating ([6]; 125 g ai/ha): 100
- Plant response rating, Kochia ([6]; 500 g ai/ha): 100
- Plant response rating, Corn [7, 17]: 0
- Corn plant response rating [7, 18]: 50
- Barnyardgrass plant response rating ([8]; 125 g ai/ha): 80
- Plant response rating, Barnyardgrass ([8]; 500 g ai/ha): 100
- Plant response rating, Pigweed [9, 17]: 60
- Pigweed plant response rating [9, 18]: 90
- Plant response rating, Barnyardgrass ([10]; 125 g ai/ha): 70
- Barnyardgrass plant response rating [10]: 90
- Plant response rating, Wheat [11, 17]: 20
- Wheat plant response rating [11, 18]: 80
- Plant response rating, Ragweed [12, 17]: 90
- Ragweed plant response rating [12, 18]: 90
- Foxtail, Giant plant response rating ([13]; 125 g ai/ha): 70
- Plant response rating, Foxtail, Giant ([13]; 500 g ai/ha): 100
- Plant response rating, Ryegrass, Italian [14, 17]: 40
- Ryegrass, Italian plant response rating [14, 18]: 90
- Plant response rating, Kochia [15, 17]: 20
- Kochia plant response rating [15, 18]: 70
- Plant response rating, Foxtail, Giant [16, 17]: 10
- Foxtail, Giant plant response rating [16, 18]: 60
